Test results reported in patent publication US20130097726A1, “METHODS AND COMPOSITIONS FOR WEED CONTROL” (priority 2011, published 2013).

Test system: Glyphosate-sensitive Palmer amaranth (A. palmeri R-22) plants
Assay: Topical ssDNA HPPD oligonucleotide mixture with or without mesotrione or atrazine: plant height / growth reduction
Type: in vivo, Amaranthus palmeri
Details: twelve days after treatment
Procedure: Glyphosate-sensitive Palmer amaranth (A. palmeri R-22) plants were grown in the greenhouse (30/20 C day/night T; 14 hour photoperiod) in 4 inch square pots containing Sun Gro® Redi-Earth and 3.5 kg/cubic meter Osmocote® 14-14-14 fertilizer. Palmer amaranth plants at 5 to 10 cm in height were pre-treated with a mixture of eight 8 short (21-22mer) single-strand antisense oligo DNA polynucleotides (ssDNAas) targeting HPPD shown in Table 2 as HPPD_OLIGO1-8 (SEQ ID NO: 1083-1090, respectively) at two concentrations, 16 nmol and 80 nmol, formulated in 10 millimolar sodium phosphate buffer (pH 6.8) containing 2% ammonium sulfate and 0.5% Silwet L-77. Plants were treated manually by pipetting 10 μL of polynucleotide solution on four fully expanded mature leaves, for a total of 40 microliters of solution per plant. Twenty-four and forty-eight hours later, the plants were treated with mesotrione (Callisto®, 4 lb ai per gallon; HPPD inhibitor) at 13 g ai/ha, or atrazine (Aatrex® Nine-0®, 90% w/w ai; Photosystem II inhibitor) at 170 g ai/ha using a track-sprayer equipped with a 9501E nozzle and calibrated to deliver 93 liters of solution per hectare. […] Plant height was determined just before ssDNA treatment and at intervals upto twelve days after herbicide treatments to determine effect of the oligonucleotide and herbicide treatments.

SMILES | control (growth reduction) (mesotrione alone 13 g ai/ha) | control (growth reduction) (atrazine alone 170 g ai/ha)
CS(=O)(=O)c1ccc(C(=O)C2C(=O)CCCC2=O)c([N+](=O)[O-])c1 [mesotrione] | 48% | 
CCNc1nc(Cl)nc(NC(C)C)n1 [atrazine] |  | 29%
